The text below walks through data of US11230541B2, “Heterocyclic compound” (Takeda Pharmaceutical Company Limited, priority 2017, dated 2022).

The target of the experiment is T1, NMDA receptor composed of four subunits including 2 sets of heterodimers of NR1 and NR2B (Homo sapiens, UniProt Q13224).
T1 construct: host or cells: HEK293 (tetracycline-induced expression)
The experiment is described as follows: NR2B Ca2+ influx assay (FLIPR, Fluo-4) in HEK293 cells expressing human GRIN1 and GRIN2B. In kind it is cell-based. Particulars: HEK293, 10 μM final compound concentration, glutamic acid/glycine-induced Ca2+ influx, read-out: inhibitory rate (10 μM compound concentration). An excerpt:
To confirm the “antagonistic action on an NMDA receptor containing the NR2B subunit” of the compound of the present invention, human embryonic kidney cell expressing the “NMDA receptor composed of four subunits including 2 sets of heterodimers of NR1 and NR2B”, specifically HEK293 cell expressing human glutamate ionotropic receptor NMDA type subunit 1 (GRIN1) and human glutamate ionotropic receptor NMDA type subunit 2B (GRIN2B), was used and the activation suppressive effect on the receptors was measured.
As an index of the NMDA receptor activation, intracellular calcium ion (Ca^2+) influx caused by the binding of glycine and glutamic acid with NR1 and NR2B, respectively, was used. HEK293 cells were purchased from ChanTest. The cells were cultured in a DMEM/F-12 (COSMO BIO, 10-092-CM) medium added with 10% FBS′(fetal bovine serum, AusGene), 100 units/mL penicillin, 100 μg/mL streptomycin, 500 μg/mL neomycin, 100 μg/mL Zeocin, 5 μg/mL Blasticidin at 37° C., 5% CO2. The cells were detached from flask with trypsin the day before the assay, suspended in a seeding medium (DMEM (Invitrogen, 31053) added with 10% FBS, 100 units/mL penicillin, 100 μg/mL streptomycin) at 8×10^5 cells/mL, seeded by 25 μL per well in a 384-well plate (Falcon, 356663) at 20000 cells/well, and cultured overnight in an incubator. On the day of the assay, tetracycline (Wako Pure Chemical Industries, Ltd., 209-16561) was diluted with the seeding medium at 2 μg/mL, added at […] to the plate seeded with the cells, and cultured for 2 hr in an incubator. Thereafter, the medium was removed, and the cells were washed with 50 μL/well assay buffer (137 mM NaCl, 4 mM KCl, 1.8 mM CaCl2, 10 mM HEPES (pH 7.2), 10 mM Glucose, 0.1% BSA). Then, a loading buffer (assay buffer added with 2.5 uM Fluo-4AM, 2 mM Amaranth, 1 mM Tartrazine) was added at 25 μL/well, and loading was performed in the incubator for 30 min, and at room temperature for 15 min. A solution (25 μL) of the Example compound diluted with the above-mentioned assay buffer at 30 μM (final concentration 10 μM) was added, and the cells were stood for 15 min at room temperature. Using FLIPR (Molecular Devices), 25 μL of an assay buffer containing 30 μM glutamic acid, 30 μM glycine was added, and the fluorescence signal was measured every 3 seconds for 5 min. The inhibitory activity was calculated as a relative activity value (inhibitory rate) that inhibits 100% of the cumulative value of the fluorescence value of a well added with a buffer free of glutamic acid, glycine, relative to the cumulative value of the fluorescence value of each well.

Structures are written as SMILES.

T1 sequence (Q13224 27-1484, other chains not shown): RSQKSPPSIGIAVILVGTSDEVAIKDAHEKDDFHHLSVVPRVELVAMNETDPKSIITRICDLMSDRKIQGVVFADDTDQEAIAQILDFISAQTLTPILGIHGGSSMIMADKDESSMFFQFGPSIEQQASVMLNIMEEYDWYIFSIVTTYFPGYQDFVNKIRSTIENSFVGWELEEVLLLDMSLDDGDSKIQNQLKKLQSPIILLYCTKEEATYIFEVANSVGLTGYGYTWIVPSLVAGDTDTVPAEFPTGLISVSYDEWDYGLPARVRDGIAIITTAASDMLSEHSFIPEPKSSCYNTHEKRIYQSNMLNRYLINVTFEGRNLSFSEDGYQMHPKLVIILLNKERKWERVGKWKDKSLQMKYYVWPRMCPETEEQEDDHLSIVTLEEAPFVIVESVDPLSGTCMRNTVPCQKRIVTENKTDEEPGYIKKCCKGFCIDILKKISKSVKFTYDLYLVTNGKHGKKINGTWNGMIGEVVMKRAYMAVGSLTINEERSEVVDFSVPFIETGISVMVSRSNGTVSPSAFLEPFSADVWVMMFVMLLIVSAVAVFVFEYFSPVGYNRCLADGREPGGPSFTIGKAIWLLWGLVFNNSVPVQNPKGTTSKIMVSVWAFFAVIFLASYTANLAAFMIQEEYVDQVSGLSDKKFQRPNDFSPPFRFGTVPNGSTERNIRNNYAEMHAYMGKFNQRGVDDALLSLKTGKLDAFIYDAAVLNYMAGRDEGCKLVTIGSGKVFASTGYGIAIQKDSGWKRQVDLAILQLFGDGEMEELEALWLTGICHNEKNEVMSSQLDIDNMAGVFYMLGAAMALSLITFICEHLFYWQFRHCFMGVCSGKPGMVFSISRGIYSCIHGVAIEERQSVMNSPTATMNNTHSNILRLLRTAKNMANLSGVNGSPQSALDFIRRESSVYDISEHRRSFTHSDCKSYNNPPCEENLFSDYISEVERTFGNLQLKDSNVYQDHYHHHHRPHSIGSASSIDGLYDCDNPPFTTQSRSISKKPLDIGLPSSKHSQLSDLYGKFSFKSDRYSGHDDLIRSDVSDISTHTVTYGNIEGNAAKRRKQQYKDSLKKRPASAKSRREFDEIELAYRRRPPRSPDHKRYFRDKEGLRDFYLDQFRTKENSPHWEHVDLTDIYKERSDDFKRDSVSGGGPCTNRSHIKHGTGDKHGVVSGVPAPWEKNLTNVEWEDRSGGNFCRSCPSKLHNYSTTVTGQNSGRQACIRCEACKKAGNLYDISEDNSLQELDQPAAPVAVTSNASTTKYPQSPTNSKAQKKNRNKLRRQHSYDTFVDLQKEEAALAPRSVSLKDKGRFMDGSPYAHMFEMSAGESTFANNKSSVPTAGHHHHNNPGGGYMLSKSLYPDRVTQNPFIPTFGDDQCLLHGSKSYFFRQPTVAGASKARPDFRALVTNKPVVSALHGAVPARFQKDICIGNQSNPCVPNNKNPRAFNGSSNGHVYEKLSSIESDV

`O=C(NCc1cccc2[nH]ncc12)c1ccc(OC(F)(F)F)cc1` [Example 7, N-(1H-indazol-4-ylmethyl)-4-(trifluoromethoxy)benzamide]: the inhibition at 10 µM amounted to 93%.

Consider `COc1ccc2nc(C)n(C)c2c1CNC(=O)c1cnc(OC(F)F)c(F)c1` [Example 251, 6-(difluoromethoxy)-5-fluoro-N-((6-methoxy-1,2-dimethyl-1H-benzimidazol-7-yl)methyl)nicotinamide], for which the inhibition at 10 µM is 76%.

For the compound `CCOc1ccc2ncn(C)c2c1CNC(=O)c1ccc(C(F)(F)F)cc1` [Example 128, N-((6-ethoxy-1-methyl-1H-benzimidazol-7-yl)methyl)-4-(trifluoromethyl)-benzamide], the inhibition at 10 µM was found to be 91%.

`COc1ccc2nc(C)n(C)c2c1CNC(=O)c1cc(F)c(OC(F)F)c(F)c1` [Example 246, 4-(difluoromethoxy)-3,5-difluoro-N-((6-methoxy-1,2-dimethyl-1H-benzimidazol-7-y1)methyl)benzamide]: the inhibition at 10 µM was 87%.

Consider `COc1ccc2nc(C)n(C)c2c1CNC(=O)c1ccc(Cl)s1` [Example 229, 5-chloro-N-((6-methoxy-1,2-dimethyl-1H-benzimidazol-7-yl)methyl)thiophene-2-carboxamide], for which the inhibition at 10 µM is 62%.

`COc1ccc2nc(C)n(C)c2c1CNC(=O)c1ccc(OC(F)F)c(Cl)c1` [Example 244, 3-chloro-4-(difluoromethoxy)-N-((6-methoxy-1,2-dimethyl-lH-benzimidazol-7-yl)methyl)benzamide]: the inhibition at 10 µM turned out to be 87%.

For the compound `COc1ccc2nc(C)n(C)c2c1CNC(=O)c1cc(F)c(C(F)F)c(F)c1` [Example 240, 4-(difluoromethyl)-3,5-difluoro-N-((6-methoxy-1,2-dimethyl-1H-benzimidazol-7-yl)methyl)benzamide], the inhibition at 10 µM came to 53%.

In the case of `COc1ncc(C(=O)NCc2cccc3[nH]ncc23)cc1Cl` [Example 169, 5-chloro-N-(1H-indazol-4-ylmethyl)-6-methoxynicotinamide], the inhibition at 10 µM turned out to be 70%.

Take `COc1ccc2ncn(C)c2c1CNC(=O)c1ccc(C(F)(F)F)c(F)c1` [Example 13, 3-fluoro-N-((6-methoxy-1-methyl-1H-benzimidazol-7-yl)methyl)-4-(trifluoromethyl)benzamide]: the inhibition at 10 µM was found to be 94%.

With `Cc1ccc2ncn(C)c2c1CNC(=O)c1ccc(OC(F)F)cc1` [Example 135, 4-(difluoromethoxy)-N-((1,6-dimethyl-1H-benzimidazol-7-yl)methyl)benzamide], the inhibition at 10 µM was determined as 90%.

For `COc1ccc2ncn(C)c2c1CNC(=O)c1cc(F)c(C(F)(F)F)c(F)c1` [Example 24, 3,5-difluoro-N-((6-methoxy-1-methyl-1H-benzimidazol-7-yl)-methyl)-4-(trifluoro-methyl)benzaraide], the inhibition at 10 µM was 90%.

Regarding `Cc1ccc2[nH]nnc2c1CNC(=O)c1ccc(OC(F)F)cc1` [Example 265, 4-(difluoromethoxy)-N-((5-methyl-1H-benzotriazol-4-yl)methyl)benzamide], the inhibition at 10 µM was found to be 97%.

With `COc1ccc2ncn(C)c2c1CNC(=O)c1ccc(C(F)F)c(F)c1` [Example 124, 4-(difluoromethyl)-3-fluoro-N-((6-methoxy-1-methyl-1H-benzimidazol-7-yl)methyl)benzamide], the inhibition at 10 µM came to 90%.

Turning to `COc1ccc2ncn(C)c2c1CNC(=O)c1csc(C(F)F)c1` [Example 110, 5-(difluoromethyl)-N-((6-methoxy-1-methyl-1H-benzimidazol-7-yl)methyl)thiophene-3-carboxamide], the inhibition at 10 µM came out at 92%.

Consider `COc1ccc2nc(C)n(C)c2c1CNC(=O)c1ccc(C)c(F)c1` [Example 238, 3-fluoro-N-((6-methoxy-1,2-dimethyl-1H-benzimidazol-7-yl)methyl)-4-methylbenzamide], for which the inhibition at 10 µM is 61%.

Turning to `O=C(NCc1c(C2CC2)ccc2[nH]ncc12)c1cnc(OC(F)F)c(Cl)c1` [Example 121, 5-chloro-N-((5-cyclopropyl-1H-indazol-4-yl)methyl)-6-(difluoromethoxy)-nicotinamide], the inhibition at 10 µM stood at 91%.

In the case of `COc1ccc2ncn(C)c2c1CNC(=O)c1cc(C)cs1` [Example 43, N-((6-methoxy-1-methyl-1H-benzimidazol-7-yl)-methyl)-4-methylthiophene-2-carboxamide], the inhibition at 10 µM was determined as 61%.

`COc1ccc2ncn(C)c2c1CNC(=O)c1cnc(OC(F)F)c(F)c1` [Example 59, 6-(difluoromethoxy)-5-fluoro-N-((6-methoxy-1-methyl-1H-benzimidazol-7-yl)-methyl)nicotinamide]: the inhibition at 10 µM was found to be 94%.

In the case of `COc1c(F)cc(C(=O)NCc2cccc3[nH]ncc23)cc1F` [Example 180, 3,5-difluoro-N-(1H-indazol-4-ylmethyl)-4-methoxybenzamide], the inhibition at 10 µM amounted to 89%.

On to `Cc1cc(C(=O)NCc2c(C3CC3)ccc3[nH]ncc23)ccc1Cl` [Example 73, 4-chloro-N-((5-cyclopropyl-1H-indazol-yl)methyl)-3-methylbenzamide], for which the inhibition at 10 µM came out at 94%.

With `COc1c(F)cc(C(=O)NCc2cccc3[nH]nc(C)c23)cc1F` [Example 270, 3,5-difluoro-4-methoxy-N-((3-methyl-1H-indazol-4-yl)methyl)benzamide], the inhibition at 10 µM was determined as 67%.

For `COc1ccc(C(=O)NCc2c(OC)ccc3ncn(C)c23)cc1F` [Example 11, 3-fluoro-4-methoxy-N-((6-methoxy-1-methyl-1H-benzimidazol-7-yl)methyl)benzamide], the inhibition at 10 µM was 92%.

With `COc1ncc(C(=O)NCc2c(C3CC3)ccc3[nH]ncc23)cc1Cl` [Example 103, 5-chloro-N-((5-cyclopropyl-1H-indazol-yl)methyl)-6-methoxynicotinamide], the inhibition at 10 µM stood at 93%.

As for `COc1ccc(C(=O)NCc2c(C)ccc3[nH]nnc23)cc1` [Example 264, 4-methoxy-N-((5-methyl-1H-benzotriazol-4-yl)methyl)benzamide], the inhibition at 10 µM amounted to 83%.

On to `COc1ccc2nc(C)n(C)c2c1CNC(=O)c1ccc(Cl)cc1` [Example 249, 4-chloro-N-((6-methoxy-1,2-dimethyl-1H-benzimidazol-7-yl)methyl)benzamide], for which the inhibition at 10 µM is 57%.

As to `COc1c(F)cc(C(=O)NCc2c(F)ccc3ncn(C)c23)cc1F` [Example 210, 3,5-difluoro-N-((6-fluoro-1-methyl-1H-benzimidazol-7-yl)methyl)-4-methoxybenzamide], the inhibition at 10 µM worked out at 90%.

Take `COc1ccc2[nH]nnc2c1CNC(=O)c1cc(F)c(OC)c(F)c1` [Example 207, 3,5-difluoro-4-methoxy-N-((5-methoxy-1H-benzotriazol-4-yl)methyl)benzamide]: the inhibition at 10 µM turned out to be 98%.

In the case of `COc1ccc2nc(C)n(C)c2c1CNC(=O)c1ccc(OC(F)F)c(F)c1` [Example 253, 4-(difluoromethoxy)-3-fluoro-N-((6-methoxy-1,2-dimethyl-1H-benzimidazol-7-yl)methyl)benzamide], the inhibition at 10 µM turned out to be 84%.

As to `O=C(NCc1c(C2CC2)ccc2[nH]ncc12)c1cc(Cl)c(F)c(Cl)c1` [Example 86, 3,5-dichloro-N-((5-cyclopropyl-1H-indazol-4-yl)methyl)-4-fluorobenzamide], the inhibition at 10 µM stood at 94%.

As for `COc1ccc2nc(C)n(C)c2c1CNC(=O)c1csc(C(F)F)c1` [Example 232, 5-(difluoromethyl)-N-((6-methoxy-1,2-dimethyl-lH-benzimidazol-7-yl)methyl)thiophene-3-carboxamide], the inhibition at 10 µM came to 64%.

For the compound `CCc1ccc2[nH]nnc2c1CNC(=O)c1cnc(OC)c(F)c1` [Example 208, N-((5-ethyl-1H-benzotriazol-4-yl)methyl)-5-fluoro-6-methoxynicotinamide], the inhibition at 10 µM worked out at 85%.

Regarding `COc1ccc2ncn(C)c2c1CNC(=O)c1cc(F)c(Cl)c(Cl)c1` [Example 55, 3,4-dichloro-5-fluoro-N-((6-methoxy-1-methyl-1H-benzimidazol-7-yl)methyl)benzamide], the inhibition at 10 µM came to 90%.
